Results from patent publication US20150011423A1, “MEANS AND METHODS FOR ASSESSING KIDNEY TOXICITY” (BASF SE, priority 2011, published 2015).
Marks after values point to notes of the source that are not given here. Blank lines part the entries; values can stand above or below the compound they belong to.

Test system: rats
Test: 28-day repeated dose study in rats with mass spectrometry-based plasma metabolite profiling (GC-MS, LC-MS, SPE-LC-MS); treatment ratios versus control
Conditions: plasma; for Cytosine, treatment ratio versus control / Glutamate, treatment ratio versus control: Table 6b ACE inhibitor induced like toxicity; for Adrenaline (Epinephrine), treatment ratio versus control / Glucosamine, treatment ratio versus control / Histamine, treatment ratio versus control / Mannosamine, treatment ratio versus control: Table 2b glomerular-tubular defect
[1] = female rats, day 28, high dose, Table 5a tubular necrosis
[2] = female rats, day 28, high dose, Table 5b tubular necrosis
[3] = female rats, day 14, high dose, Table 2a glomerular-tubular defect
[4] = female rats, day 28, high dose, Table 2a glomerular-tubular defect
[5] = male rats, day 7, high dose, Table 2c glomerular-tubular defect
[6] = male rats, day 7, high dose, Table 2d glomerular-tubular defect
[7] = male rats, day 14, high dose, Table 2c glomerular-tubular defect
[8] = male rats, day 14, high dose, Table 2d glomerular-tubular defect
[9] = male rats, day 28, high dose, Table 2c glomerular-tubular defect
[10] = male rats, day 28, high dose, Table 2d glomerular-tubular defect
[11] = male rats, day 7, high dose, Table 7a interstitial nephritis
[12] = male rats, day 7, high dose, Table 7b interstitial nephritis
[13] = male rats, day 14, high dose, Table 7a interstitial nephritis
[14] = male rats, day 14, high dose, Table 7b interstitial nephritis
[15] = male rats, day 28, high dose, Table 7a interstitial nephritis
[16] = male rats, day 28, high dose, Table 7b interstitial nephritis

SMILES: C[C@@H]1[C@H](O)[C@@H](C)/C=C/C=C/C=C/C=C/C=C/C=C/C=C/[C@H](O[C@@H]2O[C@H](C)[C@@H](O)[C@H](N)[C@@H]2O)C[C@@H]2O[C@](O)(C[C@@H](O)C[C@@H](O)[C@H](O)CC[C@@H](O)C[C@@H](O)CC(=O)O[C@H]1C)C[C@H](O)[C@H]2C(=O)O [Amphotericin B]
Docosahexaenoic acid (C22:cis[4,7,10,13,16,19]6), treatment ratio versus control [1]: 1.32 *
Docosapentaenoic acid (C22:cis[7,10,13,16,19]5), treatment ratio versus control [1]: 1.23 *
Eicosanoic acid (C20:0), treatment ratio versus control [1]: 1.18 *
Glycerol, lipid fraction, treatment ratio versus control [1]: 1.31 *
Leucine, treatment ratio versus control [1]: 1.21 *
Phosphate (inorganic and organic phosphates), treatment ratio versus control [1]: 1.25 *
Hippuric acid, treatment ratio versus control [2]: 0.44 *
Lactate, treatment ratio versus control [2]: 0.68 *

SMILES: CCOC(=O)[C@H](CCc1ccccc1)N[C@@H](C)C(=O)N1[C@H](C(=O)O)C[C@@H]2CCC[C@@H]21 [Ramipril]
Cytosine, treatment ratio versus control (male rats, day 7, high dose): 0.7 *
Glutamate, treatment ratio versus control (male rats, day 7, high dose): 0.92 *
Glycine, treatment ratio versus control (male rats, day 14, high dose, Table 6a ACE inhibitor induced like toxicity): 1.5 *
Cytosine, treatment ratio versus control (male rats, day 14, high dose): 0.85 *
Glutamate, treatment ratio versus control (male rats, day 14, high dose): 0.71 *
Cytosine, treatment ratio versus control (male rats, day 28, high dose): 0.91^
Glutamate, treatment ratio versus control (male rats, day 28, high dose): 0.61 *

3-Hydroxyindole, treatment ratio versus control [3]: 1.35
3-Indoxylsulfate, treatment ratio versus control [3]: 1.2
Creatine, treatment ratio versus control [3]: 1.18*
Creatinine, treatment ratio versus control [3]: 1.06
Elaidic acid (C18:trans[9]1), treatment ratio versus control [3]: 1.18
Lysophosphatidylcholine (C20:4), treatment ratio versus control [3]: 1.04
Xylitol, treatment ratio versus control [3]: 1.17
Adrenaline (Epinephrine), treatment ratio versus control (female rats, day 14, high dose): 1.27
Glucosamine, treatment ratio versus control (female rats, day 14, high dose): 0.4 *
Histamine, treatment ratio versus control (female rats, day 14, high dose): 0.93
Mannosamine, treatment ratio versus control (female rats, day 14, high dose): 0.69 *
3-Hydroxyindole, treatment ratio versus control [4]: 1.21 *
3-Indoxylsulfate, treatment ratio versus control [4]: 1.21 *
Creatine, treatment ratio versus control [4]: 1.33 *
Creatinine, treatment ratio versus control [4]: 1.93 *
Elaidic acid (C18:trans[9]1), treatment ratio versus control [4]: 1.22 *
Lysophosphatidylcholine (C20:4), treatment ratio versus control [4]: 1.24 *
Xylitol, treatment ratio versus control [4]: 1.31 *
Adrenaline (Epinephrine), treatment ratio versus control (female rats, day 28, high dose): 0.28 *
Glucosamine, treatment ratio versus control (female rats, day 28, high dose): 1.06^
Histamine, treatment ratio versus control (female rats, day 28, high dose): 0.81 *
Mannosamine, treatment ratio versus control (female rats, day 28, high dose): 1.04^
Creatine, treatment ratio versus control [5]: 1.16 *
Creatinine, treatment ratio versus control [5]: 1.32^
Glycerol-3-phosphate, polar fraction, treatment ratio versus control [5]: 1.28 *
Lysophosphatidylcholine (C18:2), treatment ratio versus control [5]: 1.07 *
Threonic acid, treatment ratio versus control [5]: 1.37 *
4-Hydroxy-3-methoxyphenylglycol (HMPG), treatment ratio versus control [6]: 1.07^
Cysteine, treatment ratio versus control [6]: 0.59 *
Isopalmitic acid (C16:0), treatment ratio versus control [6]: 0.78 *
Metanephrine, treatment ratio versus control [6]: 0.81 *
Normetanephrine, treatment ratio versus control [6]: 0.9
Creatine, treatment ratio versus control [7]: 1.06 *
Creatinine, treatment ratio versus control [7]: 1.12 *
Glycerol-3-phosphate, polar fraction, treatment ratio versus control [7]: 0.97^
Lysophosphatidylcholine (C18:2), treatment ratio versus control [7]: 1.2 *
Threonic acid, treatment ratio versus control [7]: 1.27 *
4-Hydroxy-3-methoxyphenylglycol (HMPG), treatment ratio versus control [8]: 0.91 *
Cysteine, treatment ratio versus control [8]: 0.77 *
Isopalmitic acid (C16:0), treatment ratio versus control [8]: 0.64 *
Metanephrine, treatment ratio versus control [8]: 0.7 *
Normetanephrine, treatment ratio versus control [8]: 0.89 *
Creatine, treatment ratio versus control [9]: 1.31
Creatinine, treatment ratio versus control [9]: 1.05
Glycerol-3-phosphate, polar fraction, treatment ratio versus control [9]: 1.29 *
Lysophosphatidylcholine (C18:2), treatment ratio versus control [9]: 1.09
Threonic acid, treatment ratio versus control [9]: 1.14 *
4-Hydroxy-3-methoxyphenylglycol (HMPG), treatment ratio versus control [10]: 0.86 *
Cysteine, treatment ratio versus control [10]: 0.72 *
Isopalmitic acid (C16:0), treatment ratio versus control [10]: 0.83^
Metanephrine, treatment ratio versus control [10]: 0.76 *
Normetanephrine, treatment ratio versus control [10]: 0.73 *
SMILES: C[C@H](CS)C(=O)N1CCC[C@H]1C(=O)O [Captopril]

Creatine, treatment ratio versus control [11]: 1.4 *
Creatinine, treatment ratio versus control [11]: 1.41 *
Eicosanoic acid (C20:0), treatment ratio versus control [11]: 1.41 *
Glucuronic acid, treatment ratio versus control [11]: 1.08^
Lignoceric acid (C24:0), treatment ratio versus control [11]: 1.31 *
Phosphatidylcholine (C18:2, C20:4), treatment ratio versus control [11]: 1.05 *
Serine, treatment ratio versus control [11]: 1.12 *
Sphingomyelin (d18:1, C16:0), treatment ratio versus control [11]: 1.69 *
Threonine, treatment ratio versus control [11]: 1.31 *
myo-Inositol-2-phosphate, treatment ratio versus control [11]: 1.39 *
Glycerol, polar fraction, treatment ratio versus control [12]: 0.98^
Isopalmitic acid (C16:0), treatment ratio versus control [12]: 0.55 *
Kynurenic acid, treatment ratio versus control [12]: 0.71 *
Creatine, treatment ratio versus control [13]: 1.35 *
Creatinine, treatment ratio versus control [13]: 1.58 *
Eicosanoic acid (C20:0), treatment ratio versus control [13]: 1.3 *
Glucuronic acid, treatment ratio versus control [13]: 1.17 *
Lignoceric acid (C24:0), treatment ratio versus control [13]: 1.55 *
Phosphatidylcholine (C18:2, C20:4), treatment ratio versus control [13]: 1.06 *
Serine, treatment ratio versus control [13]: 1.5 *
Sphingomyelin (d18:1, C16:0), treatment ratio versus control [13]: 1.5 *
Threonine, treatment ratio versus control [13]: 1.72 *
myo-Inositol-2-phosphate, treatment ratio versus control [13]: 0.88^
Glycerol, polar fraction, treatment ratio versus control [14]: 0.87^
Isopalmitic acid (C16:0), treatment ratio versus control [14]: 0.57 *
Kynurenic acid, treatment ratio versus control [14]: 0.83 *
Creatine, treatment ratio versus control [15]: 1.34 *
Creatinine, treatment ratio versus control [15]: 1.33 *
Eicosanoic acid (C20:0), treatment ratio versus control [15]: 1.76 *
Glucuronic acid, treatment ratio versus control [15]: 1.26 *
Lignoceric acid (C24:0), treatment ratio versus control [15]: 1.23 *
Phosphatidylcholine (C18:2, C20:4), treatment ratio versus control [15]: 1.05^
Serine, treatment ratio versus control [15]: 1.54 *
Sphingomyelin (d18:1, C16:0), treatment ratio versus control [15]: 1.48 *
Threonine, treatment ratio versus control [15]: 2.44 *
myo-Inositol-2-phosphate, treatment ratio versus control [15]: 1.3 *
Glycerol, polar fraction, treatment ratio versus control [16]: 0.75 *
Isopalmitic acid (C16:0), treatment ratio versus control [16]: 0.59 *
Kynurenic acid, treatment ratio versus control [16]: 0.8 *
SMILES: CCc1ccccc1 [Ethyl benzene, Ethylbenzene]
